In patent US20180030074A1, “PHOSPHONIUM COMPOUND AND PRODUCTION METHOD THEREFOR” (priority 2014, published 2018):

Legend:
[1] = comparison values quoted without source or species; cited from earlier work
[2] = background statement; cited from earlier work
[3] = Mouse biodistribution study; format: in vivo, Slc:ICR mice; conditions: mice; for accumulation of labeled compound in the myocardium versus adjacent organs: i.v., 60 or 120 minutes after administration, gamma counter, n=4; for ratio of radioactivity accumulations in the myocardium and liver (heart/liver ratio): time point of 60 minutes
Protocol: (§1) The animals used in this measurement were 6-8-week-old male Slc:ICR mice (from Japan SLC, Inc.) (n=4). Each of different physiological saline solutions of the [^18F]-labeled compounds (200 μL, 370-740 kBq) used in this measurement was administered to the awake mice via the caudal vein, and after 60 or 120 minutes of the administration, the mice were euthanized by cervical dislocation under isoflurane anesthesia. After blood was sampled from the heart immediately, the heart, lung, liver, spleen, kidney, small intestine, thigh muscle, thigh bone, and brain were excised and measured for amount of radioactivity by a γ counter. The weights of the excised organs were measured, and on that basis, the accumulation rates per gram of the organs with respect to dose (% dose/g of organ, % ID/g) were calculated as indicators for accumulation of the chemical compounds used (n=4).

myocardium [4] = test: Mouse PET/CT imaging; format: in vivo, Slc:ICR mice; conditions: mice, i.v. caudal vein; for accumulation of radioactivity in the myocardium (PET/CT images): imaged 60 minutes after administration for 10 minutes; for contrast of myocardial images: PET/CT 60 minutes after administration
Protocol: The animals used in this measurement were 6-10-week-old male Slc:ICR mice (from Japan SLC, Inc.). […] Then, the mice were fixed under isoflurane anesthesia (2%, 1.5 mL/min.), and after 60 minutes of the administration, the whole bodies of the mice were imaged by small-animal PET (ClairvivoPET produced by Shimadzu Corporation) for 10 minutes. Subsequently, while the mice were kept fixed, their whole bodies were imaged by small-animal CT (ClairvivoCT produced by Shimadzu Corporation). The PET data were reconstructed by 3D-DRAMA, and the pixel values of the obtained PET images were converted to SUV to generate SUV images. These images were fused with CT images to produce fused images.

[5] = Rat biodistribution study; format: in vivo, Wistar rats; conditions: rats
Protocol: as §1
The biodistribution study of [^18F]TAP-018 in rats was conducted by the same procedure as in Test Example 2 using 6-week-old male Wistar rats (from Japan SLC, Inc.) (n=4). The results are summarized in a bar graph (FIG. 4). […] This value is about ten times higher than the value of 1.5 for [^18F]FBnTP which has been used as a gold standard, and is sufficiently higher than the value of 9.2 for [^18F]FTPP which is currently under clinical study.

myocardium [6] = test: Small-animal PET study in rats; format: in vivo, Wistar rats; conditions: i.v., PET 0 to 120 minutes
Protocol: The myocardial imaging study of [^18F]TAP-018 in rats was conducted using 6-week-old male Wistar rats. 200 μL (7.83-9.66 MBq) of a physiological saline solution of the test compound [^18F]TAP-018 was administered via the caudal vein to the rats fixed under isoflurane anesthesia (2%, 1.5 mL/min.), and then the whole bodies of the rats were imaged by small-animal PET at time points from 0 to 120 minutes after the administration. Subsequently, while the rats were kept fixed, their whole bodies were imaged by small-animal CT. The PET data were reconstructed by 3D-DRAMA, and the pixel values of the obtained PET images were converted to SUV to generate SUV images. These images were fused with CT images to produce fused images. Further, the locations of the myocardium, lung and liver were identified based on the fused images, and regions of interest (ROI) were drawn to calculate respective SUVavg values.

[18F]c1ccc(C[P+](c2ccccc2)(c2ccccc2)c2ccccc2)cc1.[Br-] [[^18F]FBnTP, 4-[^18F]fluorobenzyl-triphenylphosphonium bromide]
heart/liver ratio (comparison values of reference agents) [1]: 1.5
accumulation in liver relative to myocardium [2]: accumulating not only in the myocardium but also in the liver adjacent to the myocardium to the same extent

[18F]c1ccc([P+](c2ccccc2)(c2ccccc2)c2ccccc2)cc1 [[^18F]FTPP]
heart/liver ratio (comparison values of reference agents) [1]: 9.2

[18F]CCOc1ccc([P+](Cc2ccccc2)(c2ccccc2)c2ccccc2)cc1 [[^18F]TAP-001, Benzyl-[4-(2-[^18F]fluoroethoxy)phenyl]-diphenylphosphonium bromide]
accumulation of labeled compound in the myocardium versus adjacent organs [3]: more highly accumulates in the myocardium than in other adjacent organs
ratio of radioactivity accumulations in the myocardium and liver (heart/liver ratio) [3]: 2.70
accumulation of radioactivity in the myocardium (PET/CT images) (myocardium [4]): accumulation of radioactivity in the myocardium was observed

[18F]CCOc1cccc([P+](Cc2ccccc2)(c2ccccc2)c2ccccc2)c1.[Br-] [[^18F]TAP-018, Benzyl[3-(2-[^18F]fluoroethoxy)phenyl]-diphenylphosphonium bromide]
accumulation of labeled compound in the myocardium versus adjacent organs [3]: more highly accumulates in the myocardium than in other adjacent organs
ratio of radioactivity accumulations in the myocardium and liver (heart/liver ratio) [3]: 9.40
accumulation in the heart ([5]; i.v., n=4): highly accumulated in the heart
heart/liver ratio ([5]; time point of 60 minutes): about 15.5
contrast of myocardial images (myocardium [4]): high-contrast myocardial images were obtained
accumulation of radioactivity in the myocardium (PET/CT images) (myocardium [4]): accumulation of radioactivity in the myocardium was observed
accumulation of radioactivity in the heart (radioactivity-time curve) (myocardium [6]): a high level of radioactivity accumulated in the heart immediately after the administration
disappearance of radioactivity from the liver (radioactivity-time curve) (myocardium [6]): radioactivity disappeared rapidly from the liver until 10 minutes after the administration

COc1ccc(C[P+](c2ccccc2)(c2ccccc2)c2cccc(OCC[18F])c2)cc1 [[^18F]TAP-019, [3-(2-[^18F]fluoroethoxy)phenyl]-(4-methoxyphenyl)methyl-diphenylphosphonium bromide]
accumulation of labeled compound in the myocardium versus adjacent organs [3]: more highly accumulates in the myocardium than in other adjacent organs
ratio of radioactivity accumulations in the myocardium and liver (heart/liver ratio) [3]: 4.56
contrast of myocardial images (myocardium [4]): high-contrast myocardial images were obtained
accumulation of radioactivity in the myocardium (PET/CT images) (myocardium [4]): accumulation of radioactivity in the myocardium was observed

[18F]CCOc1cccc([P+](CCCc2ccccc2)(c2ccccc2)c2ccccc2)c1.[Br-] [[^18F]TAP-022, [^18F][3-(2-fluoroethoxy)phenyl]-(3-phenylpropyl)-diphenylphosphonium bromide]
accumulation of labeled compound in the myocardium versus adjacent organs [3]: more highly accumulates in the myocardium than in other adjacent organs
ratio of radioactivity accumulations in the myocardium and liver (heart/liver ratio) [3]: 4.98
contrast of myocardial images (myocardium [4]): high-contrast myocardial images were obtained
accumulation of radioactivity in the myocardium (PET/CT images) (myocardium [4]): accumulation of radioactivity in the myocardium was observed
